Laboratory results: paper PMC8171317, “Total synthesis, isolation, surfactant properties, and biological evaluation of ananatosides and related macrodilactone-containing rhamnolipids” (Chemical Science, 2021)

Tests used:
[1] = Surface tension and CMC, Fisher tensiometer, du Noüy ring method; assay type: physicochemical; parameters: γ CMC (surface tension at CMC): unit not given here; details: pH 7.0; synthetic samples
Method: Biosurfactants are molecules that can associate with each other leading to the formation of micelles. They can also interact with surfaces between phases of different polarity such as the air/water or oil/water interface.[77] To gain quantitative insights into the surface-active properties of microbial glycolipids, the surface tensions at CMC (γCMC) of ananatoside A (1) and ananatoside B (2) were measured using a Fisher tensiometer by means of the du Noüy ring method. The CMC, referring to the concentration of surfactant at which micelles start to form, was determined from a plot of surface tension again each concentration. […] Consequently, the surface tension measurements were performed quickly to avoid the precipitation of ananatoside A (1) into the aqueous medium.

[2] = test system: tomato leaf disks; assay: Extracellular ROS production, luminol chemiluminescence; assay type: cell-based, Solanum lycopersicum; details: 100 μM, monitored over 720 min
Excerpt: Bacterial rhamnolipids, such as compound 3, trigger the plant immune system, which can ultimately lead to plant protection against diseases caused by fungal and bacterial pathogens.[23] As ananatoside A (1) and ananatoside B (2) share structural similarities with rhamnolipid 3 and because they have been isolated from P. ananatis cultures, an emerging plant pathogen causing important agricultural damage worldwide,[81] we wanted to investigate whether these bacterial glycolipids, along with our unprecedented series of synthetic rhamnolactones, could be perceived by the plant immune system. We relied on measuring the extracellular content of reactive oxygen species (ROS) produced by tomato plants (Solanum lycopersicum) following treatment with the synthetic compounds, as an early and important marker of plant immunity.[20,22,82] Tomato leaves were challenged with synthetic glycolipids 1–6 at concentrations of 100 μM and the production of ROS was monitored over a 720 min time frame (Fig. 5).
Fig. 5 Extracellular reactive oxygen species (ROS) production following treatment of tomato leaf disks with ananatoside A (1), ananatoside B (2), RhaC10C10 (3), and related macrodilactone-containing rhamnolipids (4–6). Production of ROS was measured in tomato leaf disks following treatment at 100 μM with synthetic glycolipids (1–6). MeOH (0.5%) was used as a control. ROS production was measured using the chemiluminescence of luminol and photon counts were expressed as relative luminescence units (RLUs). Data are mean ± SEM (n = 6). Experiments were independently realized three times with similar results. […]
Plant Material and Growth Conditions. Tomato plants (Solanum lycopersicum L var. Ailsa craig, Scotland) were grown on soil in growth chamber with white fluorescent light [200 μmol•(m−2 s−1)], under 16 h/8 h light/dark regime, 60% relative humidity , and a temperature of 24 /20 °C during four weeks prior treatment. Arabidopsis thaliana plants (ecotype Col -0) were grown on soil in growth chambers with white fluorescent light (150 μmol m−2 s−1), under 12 h/12 h light/dark regime, 60% relative humidity, and a temperature of 20/20 °C during six weeks prior treatment.
Reactive Oxygen Species (ROS) Production. ROS assays were performed on four-week old tomato plants or six-week old Arabidopsis plants. Briefly, tomato leaf disks of 6 mm diameter or Arabidopsis petiole sections of 5 mm long were cut and placed in a 96-well plate (Optiplate TM-96 white, PerkinElmer) containing 150 µL of distilled H2O and then incubated at rt for 24 h to reduce the wounding response.11 The elicitation solution containing 0.2 µg•mL−1 luminol (A4685-5 g, Sigma), […] (P6782, Sigma) and the tested glycolipids (1, 2, 3, 4, 5α, 5β, 6α or 6β) at 100 μM was prepared. Methanol (0.5%) was used as negative control. Prior elicitation, the incubating distilled H2O was carefully removed from each well, avoiding any tissue damage or desiccation. Then, the elicitation solution (150 µL) was quickly added to each well containing a leaf disk or a petiole. Luminescence (relative light units, RLU) was measured every 4

[3] = Cytotoxicity, resazurin assay; assay type: cell-based, human; details: human, max tested 200 μM
Method: As the anticancer potential of microbial rhamnolipids has previously been reported,[16] we next sought to evaluate the in vitro cytotoxicity of our synthetic and natural glycolipids 1–6 against cancerous cell lines, i.e., human lung carcinoma (A549) and colorectal adenocarcinoma (DLD-1). The compounds were also tested against human normal skin fibroblasts (WS1) to estimate their selectivity towards cancer cells.
4. Experimental Procedures for Biological Evaluation and Surfactant Properties. […]
Cell Culture. Human lung carcinoma (A549), human colorectal adenocarcinoma (DLD-1), and human normal skin fibroblasts (WS1) cell lines were obtained from the American Type Culture Collection (ATCC). All cell lines were cultured in minimum essential medium containing Earle’s […]
salts and L-glutamine (Mediatech Cellgro, VA), to which were added 10% foetal bovine serum (Hyclone), vitamins (1×), penicillin (100 IU•mL-1), streptomycin (100 µg•mL−1), essential amino acids (1×), and sodium pyruvate (1×) (Mediatech Cellgro, VA). Cells were kept at 37 °C in a humidified environment containing 5% CO2.
Cytotoxicity Assay. Exponentially growing A549, DLD-1 or WS1 cells were plated in 96-well microplates (Costar, Corning Inc.) at a density of 5 × 10^3 cells per well in 100 µL of culture medium and were allowed to adhere for 16 h prior treatment. Increasing concentrations of each compound in biotech DMSO (Sigma-Aldrich) were then added (100 µL per well) and the cells were incubated for 48 h. The final concentration of DMSO in the culture medium was maintained at 0.5% (v/v) to avoid solvent toxicity. Cytotoxicity was assessed using resazurin9 on an automated 96-well Fluoroskan Ascent F1TM plate reader (Labsystems) using excitation and emission wavelengths of 530 and 590 nm, respectively. Fluorescence was proportional to the cellular metabolic activity in each well. Survival percentage was defined as the fluorescence in experimental wells as compared to that in control wells after subtraction of blank values. Each experiment was carried out three times in triplicate. IC50 results were expressed as means ± standard deviation. […]

[4] = test system: Arabidopsis petiole; assay: Extracellular ROS production, luminol chemiluminescence; assay type: cell-based, Arabidopsis thaliana; details: 100 μM
Method: The only exception to this general trend was compound 5β. […]
ananatoside A (1) ananatoside B (2)
Figure S8. Extracellular ROS production following treatment of Arabidopsis petiole with […]
ananatoside A (1) or ananatoside B (2). Production of reactive oxygen species (ROS) was measured […]
in Arabidopsis petiole following treatment at 100 µM with ananatoside A (1) and ananatoside B […]
(2). Methanol (0.5%) was used as a control. ROS production was measured using the […]
chemiluminescence of luminol and photon counts were expressed as relative luminescence units […]
(RLUs). Data are mean ± SEM (n = 6). Experiments were realized three times with similar results.
(also on this page, place not known: S 8. ( 1) Luminescence (RLU) Luminescence (RLU)) […]
ranging between 200 µM and 1.56 µM. Triton X-100 was used as a positive hemolysis control.
The plate was then incubated at 37 °C with agitation at 150 rpm for 1 h and centrifuged at 1500 × g for 5 min. The supernatant was transferred in an empty plate and absorbance was measured at 540 nm using a Cytation3 microplate reader (Biotek). HC50 was calculated in comparison with the positive control. The experiment was performed in triplicate and repeated three times.
Plant Material and Growth Conditions. […]
Reactive Oxygen Species (ROS) Production. […] Luminescence (relative light units, RLU) was measured every 4

[5] = DLD-1 colorectal adenocarcinoma cells

| CMC (critical micelle concentration) [1] | γ CMC (surface tension at CMC) [1] | SMILES | Extracellular ROS production [2] | IC50 at 48 h ([3]; A549 lung carcinoma cells) | IC50 at 48 h [3, 5] | IC50 at 48 h ([3]; WS1 normal skin fibroblasts) | Extracellular ROS production (perception by plants) [4] |
| --- | --- | --- | --- | --- | --- | --- | --- |
| 63 ± 2 µM | 28 ± 1 | CCCCCCC[C@H](CC(=O)O)OC(=O)C[C@@H](CCCCCCC)O[C@@H]1O[C@H](CO)[C@@H](O)[C@H](O)[C@H]1O [Compound 2, ananatoside B] | less strong in amplitude, a similar pattern of ROS production | > 200 µM | > 200 µM | > 200 µM | perceived by plants |
| 43 ± 2 µM | 37 ± 1 | CCCCCCC[C@@H]1CC(=O)OC[C@H]2O[C@@H](O[C@H](CCCCCCC)CC(=O)O1)[C@H](O)[C@@H](O)[C@@H]2O [Compound 1, ananatoside A] | not | 50 ± 7 µM | 58 ± 2 µM | 52 ± 4 µM | perceived by plants |
